Test results: patent publication US7563595B2 (University of South Florida, priority 2002, dated 2009)

Legend:
Type II α7-nAChRs = conditions: cited from earlier work
α7-2-nAChRs = α7-2-nAChRs (Rattus norvegicus, UniProt Q05941, INS117GCQLHFDQDLQNMLLREACAQAGEDLRVS); assay: Two-electrode voltage-clamp of Xenopus oocytes injected with α7-2 cRNA
α7-1-nAChRs = α7-1-nAChRs (Rattus norvegicus, UniProt Q05941); assay: Two-electrode voltage-clamp of Xenopus oocytes injected with α7-1 cRNA

Substance: α-bungarotoxin [αBgt]
- block by αBgt (Type II α7-nAChRs): > 90%
- time of toxin washout within which inhibition is reversed (Type II α7-nAChRs): ≤ 5 min
- block by αBgt (α7-2-nAChRs): > 90%
- effect on transient and sustained components of the ACh-evoked current (α7-2-nAChRs): abolished
- inhibition of peak ACh-evoked current (α7-2-nAChRs): 93±3%
- reversal of αBgt inhibition after washout (α7-2-nAChRs): recovered to near control levels
- time of toxin washout within which inhibition is reversed (α7-2-nAChRs): ≤ 5 min
- reversal of αBgt block after washout (α7-1-nAChRs): did not appreciably reverse
